According to patent publication US20190031618A1, “BENZIMIDAZOLE DERIVATIVES USEFUL AS CB-1 INVERSE AGONISTS” (Janssen Pharmaceutica NV, priority 2015, published 2019):

Assays:
[1] = molecular target: Human CB2R (Cannabinoid receptor 2) (Homo sapiens, UniProt P34972); test: CB-2 in vitro cAMP (HTRF) assay; format: cell-based; settings: HEK cells, cAMP HTRF, 250 nM forskolin; mean where tested more than once; read-out: CB2 HEK_cAMP EC50
Method in brief: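 HEK-293 cells stably expressing receptor, plated overnight at 4E5 cells/mL, tested with 1/3 serial dilutions of compound in HBSS/HEPES/BSA buffer with 0.5 mM IBMX and forskolin (diluted to 1.5 μM in buffer). cAMP measured by competitive HTRF immunoassay (d2-cAMP, cryptate anti-cAMP), signal inversely proportional to cAMP.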

[2] = molecular target: Human CB1R (Cannabinoid receptor 1) (Homo sapiens, UniProt P21554); test: CB-1 in vitro cAMP (HTRF) assay; format: cell-based; settings: HEK cells, cAMP HTRF, 250 nM forskolin; mean where tested more than once; read-out: CB1 HEK_cAMP EC50
Sequence of Human CB1R (Cannabinoid receptor 1) (P21554 whole entry): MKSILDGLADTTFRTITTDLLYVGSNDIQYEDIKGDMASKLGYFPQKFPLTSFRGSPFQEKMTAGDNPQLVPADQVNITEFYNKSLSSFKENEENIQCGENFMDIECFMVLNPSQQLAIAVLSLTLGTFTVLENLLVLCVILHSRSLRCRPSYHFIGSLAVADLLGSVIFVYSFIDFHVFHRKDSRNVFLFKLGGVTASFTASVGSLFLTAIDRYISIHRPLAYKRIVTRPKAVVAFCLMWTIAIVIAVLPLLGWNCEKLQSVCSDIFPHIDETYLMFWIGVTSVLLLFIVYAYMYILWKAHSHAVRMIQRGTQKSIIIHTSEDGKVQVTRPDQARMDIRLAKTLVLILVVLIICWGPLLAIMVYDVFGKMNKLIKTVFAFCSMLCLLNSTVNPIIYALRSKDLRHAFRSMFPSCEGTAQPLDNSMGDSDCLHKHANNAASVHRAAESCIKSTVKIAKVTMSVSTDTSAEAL
Method in brief: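 Intracellular cAMP from HTRF ratio (d2-cAMP vs Eu-cryptate anti-cAMP), converted to nM via per-plate standards, in stable human CB1R HEK-293 cells.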

Sequence of Human CB2R (Cannabinoid receptor 2) (P34972 whole entry): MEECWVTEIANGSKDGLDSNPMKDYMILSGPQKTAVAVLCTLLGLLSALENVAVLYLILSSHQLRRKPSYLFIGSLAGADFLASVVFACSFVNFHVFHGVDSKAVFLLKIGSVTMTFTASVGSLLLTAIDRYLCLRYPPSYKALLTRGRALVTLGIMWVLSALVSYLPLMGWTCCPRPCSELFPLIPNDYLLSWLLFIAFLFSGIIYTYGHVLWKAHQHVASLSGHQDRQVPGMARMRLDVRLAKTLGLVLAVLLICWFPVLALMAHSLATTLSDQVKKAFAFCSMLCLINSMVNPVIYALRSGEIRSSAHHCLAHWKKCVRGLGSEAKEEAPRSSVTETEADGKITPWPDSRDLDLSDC

| SMILES | EC50 [1] [µM] | EC50 [2] [µM] |
| --- | --- | --- |
| CC(C)(C)OC(=O)N1CCC(n2c(C3CC3)nc3ccc(C(O)(c4ccc(Cl)cc4)c4ccc(Cl)cc4)cc32)CC1 [Example 41] | > 42 | 0.0306 |
| O=C(O)c1cccc(CN2CCC(n3c(C4CC4)nc4ccc(C(c5ccccc5)c5ccc(Cl)cc5)cc43)CC2)c1 (stereo not shown) [Example 101] | > 10 | 0.0285 |
| O=C(c1c[nH]nn1)N1CCC(n2c(C3CC3)nc3ccc(C(c4ccccc4)c4ccccc4)cc32)CC1 [Example 198] | > 10 | 4.8 |
| O=C(O)c1ccc(CN2CCC(n3c(C4CC4)nc4ccc(C(c5ccc(Cl)cc5)c5ccc(Cl)cc5)cc43)CC2)s1 [Example 128] | 4.89 | 0.0069 |
| O=C(O)c1ccc(S(=O)(=O)N2CCC(n3c(C4CC4)nc4ccc(C(CO)(c5ccc(Cl)cc5)c5ccc(Cl)cc5)cc43)CC2)cc1 [Example 228] | > 10 | 8.3 |
| Cc1cc(C(N)=O)sc1S(=O)(=O)N1CCC(n2c(C3CC3)nc3ccc(C(c4ccc(Cl)cc4)c4ccc(Cl)cc4)cc32)CC1 [Example 215] | > 10 | 0.002 |
| CCOC(=O)N1CCC(n2c(-c3ccc(Cl)cc3)nc3ccc(C(c4ccc(Cl)cc4)c4nccs4)cc32)CC1 (stereo not shown) [Example 441] | > 10 | 2.09 |
| OC(c1ccc(Cl)cc1)(c1ccc2nc(CC(F)(F)F)n(CCc3cccc(Cl)c3)c2c1)c1nccs1 (stereo not shown) [Example 339] | > 10 | 2.41 |
| O=S(=O)(N1CCC(n2c(-c3ccccn3)nc3ccc(C(c4ccc(Cl)cc4)c4nccs4)cc32)CC1)C(F)(F)F (stereo not shown) [Example 385] | > 10 | 0.524 |
| O=C(Nc1ccccc1)N1CCC(n2c(C3CC3)nc3ccc(C(c4ccc(Cl)cc4)c4ccc(Cl)cc4)cc32)CC1 [Example 50] | > 10 | 0.0481 |
| NC(=O)c1csc(CN2CCC(n3c(C4CC4)nc4ccc(C(c5ccc(Cl)cc5)c5ccc(Cl)cc5)cc43)CC2)c1 [Example 127] | > 10 | 0.005 |
| CC(C)c1nc2ccc(C(c3ccc(Cl)cc3)c3nccs3)cc2n1C1CCN(S(=O)(=O)C(F)(F)F)CC1 (stereo not shown) [Example 397] | > 10 | > 10 |
| O=S(=O)(N1CCC(Cn2c(C3CCC3)nc3ccc(C(c4ccc(Cl)cc4)c4ccc(Cl)cc4)cc32)CC1)C(F)(F)F [Example 288] | > 10 | 0.0023 |
| CCOC(=O)N1CCC(n2c(C3CNC3)nc3ccc(C(c4ccc(Cl)cc4)c4nccs4)cc32)CC1 (stereo not shown) [Example 414] | > 10 | 1.49 |
| O=C(O)c1ccc(O)c(CN2CCC(n3c(C4CC4)nc4ccc(C(c5ccc(Cl)cc5)c5ccc(Cl)cc5)cc43)CC2)c1 [Example 82] | > 42 | 0.995 |
| O=C(O)CN1CCC(n2c(C3CC3)nc3ccc(C(c4ccc(Cl)cc4)c4ccc(Cl)cc4)cc32)CC1 [Example 63] | > 21 | > 10 |

| SMILES | EC50 [1] [µM] | EC50 [2] [µM] |
| --- | --- | --- |
| CC(C)(C)OC(=O)N1CC(c2nc3ccc(C(c4ccc(Cl)cc4)c4nccs4)cc3n2CCc2cccc(Cl)c2)C1 (stereo not shown) [Example 406] | > 10 | 1.69 |
| CC(c1ccc(Cl)cc1)n1c(C2CC2)nc2ccc(C(c3ccc(Cl)cc3)c3nccs3)cc21 (stereo not shown) [Example 401] | > 10 | 6.02 |
| CCc1nc2ccc(C(c3ccc(Cl)cc3)c3nccs3)cc2n1CC1CCN(S(=O)(=O)C(F)(F)F)CC1 (stereo not shown) [Example 323] | > 10 | 0.0165 |
| Cc1ccc(C(c2ccc(Cl)cc2)c2ccc3nc(C4CC4)n(C4CCN(Cc5cccc(C(=O)O)c5)CC4)c3c2)cc1 (stereo not shown) [Example 100] | 6.3 | 0.0194 |
| CCCc1nc2ccc(C(c3ccc(Cl)cc3)c3nccs3)cc2n1C1CCN(C(=O)OCC)CC1 (stereo not shown) [Example 416] | > 10 | 0.392 |
| NC(=O)c1ccc(S(=O)(=O)N2CCC(n3c(C4CC4)nc4ccc(C(c5ccc(Cl)cc5)c5ccc(Cl)cc5)cc43)CC2)cc1C(F)(F)F [Example 184] | > 10 | 0.0314 |
| O=C(O)C(c1ccc(Cl)cc1)(c1ccc(Cl)cc1)c1ccc2nc(C3CC3)n(CC3CCN(S(=O)(=O)C(F)(F)F)CC3)c2c1 [Example 12] | > 10 | > 10 |
| O=S(=O)(N1CCC(n2c(C3CCCO3)nc3ccc(C(O)(c4ccc(Cl)cc4)c4ccc(Cl)cc4)cc32)CC1)C(F)(F)F (stereo not shown) [Example 285] | > 10 | 0.0034 |
| O=C(O)c1cccc(CN2CCC(n3c(C4CC4)nc4ccc(C(c5ccc(Cl)cc5)c5ccc(C(F)(F)F)cc5)cc43)CC2)c1 (stereo not shown) [Example 99] | 4.74 | 0.0188 |
| O=S(=O)(N1CCC(n2c(C3CCCO3)nc3ccc(C(c4ccc(Cl)cc4)c4ccc(Cl)cc4)cc32)CC1)C(F)(F)F (stereo not shown) [Example 271] | > 10 | 0.0021 |
| O=C(O)COc1ccc(Cn2c(C3CC3)nc3ccc(C(c4ccc(Cl)cc4)c4ccc(Cl)cc4)cc32)cc1 [Example 176] | > 10 | > 10 |
| Clc1ccc(C(c2ccc3nc(C4CC4)n(C4Cc5ccccc5C4)c3c2)c2nccs2)cc1 (stereo not shown) [Example 362] | > 10 | 0.212 |
| OC(Cn1c(C2CC2)nc2ccc(C(c3ccc(Cl)cc3)c3ccc(Cl)cc3)cc21)c1ccccc1 (single isomer, unassigned) [Example 289] | > 10 | 0.0292 |
| O=C(O)c1cccc(CN2CCC(n3c(C4CC4)nc4ccc(C(c5ccc(Cl)cc5)c5ccc(Cl)cc5)cc43)CC2)c1Cl [Example 91] | 9.4 | 0.0324 |
| CCOC(=O)N1CCC(n2c(C3CCCO3)nc3ccc(C(c4ccc(Cl)cc4)c4nccs4)cc32)CC1 (stereo not shown) [Example 411] | > 10 | 0.376 |
| Clc1ccc(C(c2ccc(Cl)cc2)c2ccc3nc(C4CC4)n(CCc4ccc(Br)cc4)c3c2)cc1 [Example 27] | > 10 | 0.011 |

Continued, values first:

| EC50 [1] [µM] | EC50 [2] [µM] | SMILES |
| --- | --- | --- |
| 3.61 | 0.0087 | NC(=O)COc1cccc(N2CCC(n3c(C4CC4)nc4ccc(C(c5ccc(Cl)cc5)c5ccc(Cl)cc5)cc43)CC2)c1 [Example 153] |
| > 10 | 2.54 | CCOC(=O)N1CCC(n2c(C3CN(C(=O)OC(C)(C)C)C3)nc3ccc(C(c4ccc(Cl)cc4)c4nccs4)cc32)CC1 (stereo not shown) [Example 417] |
| > 10 | 0.0533 | COC(=O)c1cc(OCCn2c(C3CC3)nc3ccc(C(c4ccc(Cl)cc4)c4ccc(Cl)cc4)cc32)cc(C(F)(F)F)c1 [Example 18] |
| > 10 | > 10 | CC(C)Cc1nc2ccc(C(c3ccc(Cl)cc3)c3nccs3)cc2n1-c1cccc(Cl)c1 (stereo not shown) [Example 433] |
| > 10 | 0.0812 | NC(=O)COc1cccc(-n2c(C3CC3)nc3ccc(C(c4ccc(Cl)cc4)c4ccc(Cl)cc4)cc32)c1 [Example 172] |
| 5.02 | 0.0037 | O=C(O)c1ccc(S(=O)(=O)N2CCC(n3c(C4CC4)nc4ccc(C(c5ccc(Cl)cc5)c5ccc(Cl)cc5)cc43)CC2)cc1C(F)(F)F [Example 166] |
| > 10 | 9 | O=C(O)[C@H]1CC[C@@H](n2c(C3CC3)nc3ccc(C(c4ccc(Cl)cc4)c4ccc(Cl)cc4)cc32)CC1 [Example 137] |
| > 10 | 0.0108 | O=S(=O)(c1ccccc1C(F)(F)F)N1CCC(n2c(C3CC3)nc3ccc(C(c4ccc(Cl)cc4)c4ccc(Cl)cc4)cc32)CC1 [Example 272] |
| 9.4 | 0.0829 | O=C(O)c1ccc(-c2cccc(CCn3c(C4CC4)nc4ccc(C(c5ccc(Cl)cc5)c5ccc(Cl)cc5)cc43)c2)cc1 [Example 17] |
| 0.96 | 0.0036 | O=S(=O)(c1ccccc1)N1CCC(n2c(C3CC3)nc3ccc(C(c4ccc(Cl)cc4)c4ccc(Cl)cc4)cc32)CC1 [Example 283] |
| 5.2 | 0.0034 | FC(F)(F)c1ccc(CCn2c(C3CC3)nc3ccc(C(c4ccc(Cl)cc4)c4ccc(Cl)cc4)cc32)cc1 [Example 309] |
| 1.78 | 0.0137 | NS(=O)(=O)c1cccc(C(=O)N2CCC(n3c(C4CC4)nc4ccc(C(c5ccc(Cl)cc5)c5ccc(Cl)cc5)cc43)CC2)c1 [Example 229] |
| 1.75 | 0.0639 | O=C(O)c1cc(CN2CCC(n3c(C4CC4)nc4ccc(C(c5ccc(Cl)cc5)c5ccc(Cl)cc5)cc43)CC2)cc(C(F)(F)F)c1 [Example 93] |
| 2.1 | 0.0149 | O=C(CO)N1CCC(n2c(C3CC3)nc3ccc(C(c4ccc(Cl)cc4)c4ccc(Cl)cc4)cc32)CC1 [Example 240] |
| 2.93 | 0.255 | NC(=O)COc1ccc(Cn2c(C3CC3)nc3ccc(C(c4ccc(Cl)cc4)c4ccc(Cl)cc4)cc32)cc1 [Example 182] |
| 7.26 | 0.0876 | Oc1ccc(CCn2c(C3CC3)nc3ccc(C(c4ccc(Cl)cc4)c4ccc(Cl)cc4)cc32)cc1 [Example 37] |
| 4.95 | 1.43 | CCOC(=O)N1CCC(n2c(-c3ccc(Cl)cc3Cl)nc3ccc(C(c4ccc(Cl)cc4)c4nccs4)cc32)CC1 (stereo not shown) [Example 443] |
| 0.272 | 0.441 | Clc1ccc(C(c2ccc3nc(-c4ccoc4)n(-c4cccc(Cl)c4)c3c2)c2nccs2)cc1 (stereo not shown) [Example 376] |
| 5.8 | 0.0679 | O=C(O)Cc1cccc(N2CCC(n3c(C4CC4)nc4ccc(C(c5ccc(Cl)cc5)c5ccc(Cl)cc5)cc43)CC2)c1 [Example 158] |
| 2.74 | 0.0123 | O=S(=O)(c1ccc(CO)o1)N1CCC(n2c(C3CC3)nc3ccc(C(c4ccc(Cl)cc4)c4ccc(Cl)cc4)cc32)CC1 [Example 55] |
| 5.05 | 0.0225 | O=C(O)c1cc(S(=O)(=O)N2CCC(n3c(C4CC4)nc4ccc(C(c5ccc(Cl)cc5)c5ccc(Cl)cc5)cc43)CC2)ccc1Cl [Example 214] |
